Experimental data: US20240294478A1, “ANTI-CANCER COMPOUNDS AND METHODS OF USE” (YALE UNIVERSITY, priority 2021, published 2024)

Legend:
[1] = system: linearized pUC19 plasmid DNA; assay: Melting temperature assay; assay type: biochemical; conditions: 100 or 500 μM for 3 h
Method: (§1) Columns, mean; error bars, SD; n=2 independent analyses. For (A) and (C), points, mean; error bars, SD; n=3 technical replicates.
Melting Temperature Assay. Linearized pUC19 DNA (750 ng), prepared as described above, was incubated with the indicated concentration of either MMS or KL-50 adjusted in a final volume of 18 μL in 100 mM Tris buffer (pH 7.4) for 3 h. Drug stock concentrations were made in DMSO such that each reaction contained a fixed 5% DMSO concentration. Afterwards, 1 μL each of 20×SYBR Green dye (Invitrogen) and 20×ROX reference dye (Invitrogen) was added and melting temperature analysis was run on a StepOnePlus RT PCR System (Applied Biosciences) to generate melting temperature curves.

[2] = system: LN229 MGMT+/−, MMR+/− isogenic lines; assay: Short-term cell viability with ROS scavenger NAC; assay type: cell-based, human; conditions: increasing concentrations of NAC
Method: as §1
(§2) Short-term Cell Viability Assay. Cells were seeded in 96-well plates at 1000 or 2000 cells/well and allowed to adhere at 23° C. for 60 min and then incubated overnight at 37° C. Cells were treated with indicated concentrations of compounds in triplicate for 4-6 days prior to fixation with 3.7% paraformaldehyde and nuclear staining with 1 μg/mL Hoechst 33342 dye. Cells were imaged on a Cytation 3 imaging reader (BioTek) and quantified using CellProfiler software. For in vitro short-term growth delay experiments, IC50 values were determined from the nonlinear regression equation, [inhibitor] vs normalized response with variable slope.

[3] = system: isogenic mouse embryonic fibroblasts (MEFs) proficient or deficient in XPA; assay: Short-term cell viability, XPA proficient or deficient MEFs; assay type: cell-based; conditions: with or without O6BG-induced MGMT depletion
Method: as §1
The potential for alternative mechanisms of action for KL-50 were probed implicating nucleotide excision repair (NER), base excision repair (BER), reactive oxygen species (ROS), and DNA duplex destabilization.
as §2

[4] = system: BJ fibroblast cells (normal cells); assay: Short-term cell viability, normal fibroblasts; assay type: cell-based, human; conditions: compared with TMZ
Method: FIG. 1B: Short-term viability assay curves for KL-50 in DLD1 MSH6-deficient cells pre-treated with 0.01% DMSO control (CTR) or 10 μM O^6BG (+O^6BG) for 1 h prior to KL-50 addition. […] Short-term viability assay curves for (FIG. 1E) KL-50 in HCT116 MLH1−/−cells or (FIG. 1F) HCT116 cells complemented with chromosome 3 carrying wildtype MLH1 (+Chr3) pre-treated with 0.01% DMSO control or 10 μM O^6BG (+O^6BG) for 1 h prior to KL-50 addition. […] For these figures, points, mean; error bars, SD; n>3 technical replicates.
as §2

[5] = system: linearized pUC19 plasmid DNA; assay: In vitro DNA cross-linking assay; assay type: biochemical; conditions: 100 μM
Method: Plasmid Linearization Assay. To set up the linearization reactions, 20 units of EcoRI-HF (New England Biolabs) was mixed with 20 μg 2686 bp pUC19 vector DNA in CutSmart buffer (New England Biolabs), pH 7.9, in a total volume of 1000 μL for 30 min at 37° C. The CutSmart buffer contains 50 mM potassium acetate, 20 mM Tris acetate, 10 mM magnesium acetate, and 100 μg/mL BSA. The reacted DNA was then purified using PCR cleanup kit and quantified using the NanoDrop One (Thermo Fisher). The DNA was then stored at −20° C. before use in in vitro DNA cross-linking assays or melting temperature analysis.
In Vitro DNA Cross-linking Assays. Linearized pUC19 DNA, prepared as described above, was used for in vitro DNA cross-linking assays. For each condition, 200 ng of linearized pUC19 DNA (15.4 μM base pairs) was incubated with the indicated concentration of drug in 20 μL. Drug stock concentrations were made in DMSO such that each reaction contained a fixed 5% DMSO concentration. Reactions were conducted in 100 mM Tris buffer (pH 7.4). Cisplatin (Sigma) and DMSO vehicle were used as positive and negative controls, respectively. Reactions were conducted between 3-96 h at 37° C. The DNA was stored at −80° C. until electrophoretic analysis. For gel electrophoresis, DNA concentration was preadjusted to 10 ng/μL. […]

NC(=O)c1ncn2c(=O)n(CCF)nnc12 [KL-50]
change in DNA melting temperature [1]: comparable changes in measured DNA melting temperature
rescue of toxicity by ROS scavenger NAC [2]: did not result in rescue of KL-50 toxicity
sensitivity of XPA-deficient vs proficient MEFs [3]: no differential sensitivity
cytotoxicity in normal human fibroblast cells [4]: No increase in toxicity
ICLs in plasmid DNA [5]: possessed ICLs, with delayed rates of formation
